Results from PMC9356275, “A quantitative high-throughput screen identifies compounds that lower expression of the SCA2-and ALS-associated gene ATXN2” (The Journal of Biological Chemistry, 2022).
Read-outs that look alike come from different tables or passages of the source.

Tests used:
Format in all cases: cell-based, human
ATXN2-luc [1] = test: MSSR hit retest / multiconcentration testing: ATXN2-luc luciferase assay in H2 cells (1 and 10 μM); conditions: luciferase, average of H2 and S1 cells expressing ATXN2-luc, rescreen; for H2&S1 ave luc 1uM: 1 uM compound
ATXN2-luc [2] = test: MSSR pilot screen: ATXN2-luc luciferase assay (Bright-Glo) in H2 cells, single 10 μM dose; conditions: for SD from mean (ATXN2-luc, Z-score): H2 cells, single dose (title: 10 μM compound), overnight; for ¦Score/1SD¦: absolute score divided by 1SD (0.891 or 0.9)
H2 and S1 cells = test: Paired MTT viability assay, average of H2 and S1 cells (1 and 10 uM); conditions: Homo sapiens
Description: (§1) Supplement mmc2.xlsx, sheet "43 annotated compounds"

ATXN2-luc [3] = test: MSSR hit retest: ATXN2-luc luciferase assay, average of H2 and S1 cells (1 and 10 uM); conditions: Homo sapiens; for activity at 1 µM: read-out: H2&S1 ave luc 1uM; for activity at 10 µM: head line r3 10uM; for activity at 10 µM / activity: read-out: H2&S1 ave luc 10uM
Description: as §1

ATXN2-luc [4] = test: NCATS qHTS (LOPAC pilot, primary and confirmation): ATXN2-luc in S2 cells, 1536-well, Steady-Glo; conditions: LOPAC library screening optimization; for AC50: Homo sapiens
Experimental: We next performed a pilot screen assay to optimize the 1536-well qHTS using S2 cells. […] Cytotoxicity was determined using a multiplexed viability assay (CellTiter-Fluor, a fluorescence-based viability assay using Gly-Phe-7-amino-4-trifluoromethylcoumarin substrate).
CellTiter-Fluor was used to determine compound effect on cell viability, and Steady-Glo was used to measure luciferase in a multiplexed assay.
The primary assay was conducted at the NCATS NIH Chemical Genomics Center laboratory. About 4 μl of S2 cell suspension in phenol red–free DMEM was dispensed into wells of 1536-well assay plates. […] Next, SteadyGlo luciferase substrate detection reagent (3 μl) was added to each well and incubated for an additional 5 min at room temperature. Luminescence was then measured on the ViewLux imager equipped with clear filters using a 2 s exposure. All screening operations were performed on a fully integrated robotic system (Kalypsys) containing one RX-130 and two RX-90 anthropomorphic robotic arms (Stäubli). Vehicle-only plates, with DMSO being pin-transferred to columns 5 to 48, were inserted uniformly at the beginning and the end of each library in order to monitor and record any shifts in assay performance.

ATXN2-luc [5] = test: Secondary assays: ATXN2-luc in S2 and H2 cells, 12 doses, Bright-Glo; conditions: summary data
Experimental: The values for H2 and S2 were used as replicates to calculate IC50s and to assess cell viability.
(§2) Compounds were plated at 2× concentrations in phenol red–free DMEM in 25 μl in 384-well plates with each compound dose plated in triplicate. An equal volume of S2, H2, or SC cells (24,000 cells/well) suspended in phenol red–free DMEM with 10% fetal bovine serum and 1× penicillin/streptomycin were added. Cells were grown 24 h and then assayed first by using the CellTiter-Fluor reagent (20 μl) followed by the addition of Bright-Glo (65 μl) luciferase assay, using a multimode plate reader (Beckman; DT880). Values were reported as the mean ± SD with n = 3. IC50s were determined by the Hill coefficient method using an online tool (https://www.aatbio.com/tools/ic50-calculator).

CMV-luc = test: Secondary assays: CMV-luc in SC cells, Bright-Glo; conditions: minimum CMV-luc signal in SC cells over 12 doses; summary data
Experimental: as §2

[6] = pilot screen at 10 µM compound, H2 cells expressing ATXN2-luc
[7] = 1 uM compound, read-out: H2&S1 ave MTT 1uM
[8] = 10 uM compound, read-out: H2&S1 ave MTT 10uM
[9] = 1 uM compound, average of H2 and S1 cells
[10] = pilot screen, H2 cells expressing ATXN2-luc, single dose printed as 10 μM compound
[11] = read-out: H2&S1 ave MTT 1uM, 1 uM compound
[12] = read-out: H2&S1 ave MTT 10uM, 10 uM compound

Structure (SMILES)	SD from mean (ATXN2-luc, Z-score) (ATXN2-luc [2]) [SD]	SD from mean (pilot screen) (ATXN2-luc [2]; pilot screen) [SD]	SD from mean (pilot screen) (ATXN2-luc [2]; [6])	¦Score/1SD¦ (ATXN2-luc [2]; pilot screen)	viability at 1 µM (H2 and S1 cells; [7]) [%]	viability at 10 µM (H2 and S1 cells; [8]) [%]	activity at 1 µM (ATXN2-luc [3]; [9]) [%]	activity at 10 µM (ATXN2-luc [3]; average of H2 and S1 cells) [%]	SD from mean (pilot screen) (ATXN2-luc [2]; [10])	viability at 1 µM (H2 and S1 cells; [11]) [%]	viability at 10 µM (H2 and S1 cells; [12]) [%]	activity at 1 µM (ATXN2-luc [3]) [%]	activity (ATXN2-luc [3]) [%]	other results
CC(N/C(=N\C#N)Nc1ccncc1)C(C)(C)C (centres unmarked)	-4.875	-4.875	-4.875	5.47	107	51.5	117	17						H2&S1 ave luc 1uM (ATXN2-luc [1]): 117
C[C@H]1O[C@@H](O[C@H]2[C@@H](O)C[C@H](O[C@H]3[C@@H](O)C[C@H](O[C@H]4CC[C@@]5(C)[C@H](CC[C@@H]6[C@@H]5CC[C@]5(C)[C@@H](C7=CC(=O)OC7)[C@@H](O)C[C@]65O)C4)O[C@@H]3C)O[C@@H]2C)C[C@H](O)[C@@H]1O [GITOXIN]	-4.086	-4.086	-4.086	4.54	28.7	40.3	21	12						
C[C@H]1O[C@@H](O[C@H]2CC[C@]3(C=O)[C@H]4CC[C@]5(C)[C@@H](C6=CC(=O)OC6)CC[C@]5(O)[C@@H]4CC[C@]3(O)C2)C[C@H](O)[C@@H]1O [Helveticoside]	-2.733	-2.733		3.07					-2.733	99	37.1	118	41	AC50 (ATXN2-luc [4]; logarithm of AC50 (negative values), read-out: Log AC50 (converted)): 3.55 µM; AC50 (ATXN2-luc [4]; read-out: AC50): 3.55 µM; Efficacy (ATXN2-luc [4]; curve-fit parameter): -86.9163; Inf Activity (ATXN2-luc [4]; curve-fit parameter): -84.4727
CC(=O)O[C@H]1C[C@H](O[C@H]2[C@@H](O)C[C@H](O[C@H]3[C@@H](O)C[C@H](O[C@H]4CC[C@@]5(C)[C@H](CC[C@@H]6[C@@H]5C[C@@H](O)[C@]5(C)[C@@H](C7=CC(=O)OC7)CC[C@]65O)C4)O[C@@H]3C)O[C@@H]2C)O[C@H](C)[C@H]1O[C@@H]1O[C@H](CO)[C@@H](O)[C@H](O)[C@H]1O [LANATOSIDE C]										35	35.6	39	15	H2&S1 ave luc 1uM (ATXN2-luc [1]): 39; H2&S1 ave luc 10uM (ATXN2-luc [1]; 10 uM compound): 15
Nc1ccc(-c2ccc3ncc4ccc(=O)n(-c5cccc(C(F)(F)F)c5)c4c3c2)cn1 [NCGC00263216-02, torin 2]														IC50 (ATXN2-luc [5]; ATXN2-luc luciferase assays in H2 and S2 cells, 12 doses plus a zero dose, read-out: Mean IC50): 0.257 µM; min ATXN2-luc (%) (ATXN2-luc [5]; minimum ATXN2-luc signal over 12 doses, H2 and S2 cells): 25.4183%; min SC luc (%) (CMV-luc): 128.375%
CO[C@H]1[C@H](O)[C@H](O[C@H]2CC[C@@]3(C)[C@H](CC[C@@H]4[C@@H]3CC[C@]3(C)[C@@H](C5=CC(=O)OC5)CC[C@]43O)C2)O[C@@H](C)[C@@H]1O [NERIIFOLIN]	-3.045	-3.045		3.38					-3.045	30.8	36.1	17	17	
COC(=O)C1=C(C)NC(C)=C(C(=O)OCCN(C)Cc2ccccc2)C1c1cccc([N+](=O)[O-])c1 (centres unmarked) [NICARDIPINE]	-2.782	-2.782		3.12	140	87	112	61	-2.782					
CO[C@H]1C[C@H](O[C@H]2CC[C@]3(C)[C@H]4CC[C@]5(C)[C@@H](C6=CC(=O)OC6)CC[C@]5(O)[C@@H]4CC[C@]3(O)C2)O[C@H](C)[C@H]1O [PERIPLOCYMARIN]	-2.759	-2.759		3.07					-2.759	58.7	37.1	75	17	
CO[C@H]1[C@H](O)[C@H](O[C@H]2CC[C@@]3(C=O)[C@H](CC[C@@H]4[C@@H]3CC[C@]3(C)[C@@H](C5=CC(=O)OC5)CC[C@]43O)C2)O[C@@H](C)[C@@H]1O [PERUVOSIDE]	-4.038	-4.038	-4.038	4.49						47.5	60	15	12	
CC(=O)Oc1cccc(O)c1 [RESORCINOL MONOACETATE]	-6.242	-6.242	-6.242	6.94	115	19.9	120	4.6						
C[C@]12CC[C@H](O)C[C@H]1CC[C@@H]1[C@@H]2[C@H](O)C[C@]2(C)[C@@H](C3=CC(=O)OC3)CC[C@]12O [SARMENTOGENIN]	-3.539	-3.539		3.93					-3.539	45.8	41.2	53	24	
C[C@]12CC[C@H]3[C@@H](CC[C@]4(O)C[C@@H](O)CC[C@]34C=O)[C@@]1(O)CC[C@@H]2C1=CC(=O)OC1 [STROPHANTHIDIN]		-4.451	-4.451	4.95						40.1	45.5	16	15	
C[n+]1cc2c3c(ccc2c2ccc4cc5c(cc4c21)OCO5)OCO3 [Sanguinarine]	-2.689	-2.689		3.02					-2.689	103	114	127	160	
